Reference: the CheMixHub drug solubility set

Experiment: xn = mol fraction of the nth substance listed, in the solute-free solvent

Nc1nccnc1Cl + CO + O
solubility (g/100 g solution)
Conditions | 278.15 K | 283.15 K | 288.15 K | 293.15 K | 298.15 K | 303.15 K | 308.15 K | 313.15 K | 318.15 K | 323.15 K
x2 = 0.05881 | 0.0549 | 0.0728 | 0.0951 | 0.118 | 0.143 | 0.169 | 0.195 | 0.225 | 0.254 | 0.284
x2 = 0.1233 | 0.118 | 0.155 | 0.201 | 0.248 | 0.298 | 0.348 | 0.402 | 0.461 | 0.517 | 0.578
x2 = 0.1942 | 0.209 | 0.274 | 0.352 | 0.433 | 0.519 | 0.604 | 0.695 | 0.795 | 0.89 | 0.996
x2 = 0.2727 | 0.322 | 0.42 | 0.538 | 0.661 | 0.79 | 0.918 | 1.06 | 1.21 | 1.35 | 1.51
x2 = 0.3599 | 0.423 | 0.542 | 0.697 | 0.868 | 1.06 | 1.24 | 1.44 | 1.66 | 1.86 | 2.1
x2 = 0.4576 | 0.533 | 0.708 | 0.918 | 1.15 | 1.37 | 1.6 | 1.86 | 2.13 | 2.4 | 2.73
x2 = 0.5675 | 0.656 | 0.886 | 1.15 | 1.42 | 1.7 | 1.98 | 2.31 | 2.65 | 3.02 | 3.44
x2 = 0.6923 | 0.804 | 1.06 | 1.35 | 1.67 | 1.97 | 2.3 | 2.71 | 3.13 | 3.58 | 4.07
x2 = 0.835 | 0.917 | 1.2 | 1.55 | 1.95 | 2.37 | 2.78 | 3.25 | 3.75 | 4.25 | 4.86

CN1CCN(C2=Nc3cc(Cl)ccc3Nc3ccccc32)CC1 + CN1CCCC1=O + O
solubility (g/100 g solution)
Conditions | x2 = 0.0198 | x2 = 0.04347 | x2 = 0.07228 | x2 = 0.1081 | x2 = 0.1538 | x2 = 0.2143 | x2 = 0.2979 | x2 = 0.421 | x2 = 0.6207
278.15 K | 0.00909 | 0.045 | 0.169 | 0.497 | 1.2 | 2.31 | 3.88 | 5.87 | 7.69
283.15 K | 0.0126 | 0.0614 | 0.224 | 0.65 | 1.5 | 2.92 | 4.64 | 6.96 | 9.05
288.15 K | 0.0173 | 0.0846 | 0.297 | 0.832 | 1.86 | 3.58 | 5.6 | 8.28 | 10.5
293.15 K | 0.0228 | 0.113 | 0.388 | 1.02 | 2.32 | 4.34 | 6.81 | 9.65 | 12
298.15 K | 0.0318 | 0.148 | 0.501 | 1.3 | 2.84 | 5.22 | 7.94 | 11.2 | 13.9
303.15 K | 0.0423 | 0.192 | 0.629 | 1.6 | 3.48 | 6.19 | 9.35 | 12.8 | 15.9
308.15 K | 0.0547 | 0.257 | 0.793 | 2.01 | 4.21 | 7.31 | 10.9 | 14.7 | 18
313.15 K | 0.071 | 0.329 | 1.02 | 2.46 | 5.04 | 8.54 | 12.7 | 16.8 | 20.2
318.15 K | 0.0919 | 0.419 | 1.25 | 2.99 | 5.94 | 9.98 | 14.5 | 19 | 22.5
323.15 K | 0.12 | 0.537 | 1.56 | 3.57 | 6.98 | 11.6 | 16.5 | 21.4 | 25.1
328.15 K | 0.155 | 0.673 | 1.89 | 4.3 | 8.24 | 13.4 | 18.7 | 24 | 28

CN1CCN(C2=Nc3cc(Cl)ccc3Nc3ccccc32)CC1 + C1CCOC1 + Cc1ccccc1
solubility (g/100 g solution)
Conditions | x2 = 0.1243 | x2 = 0.242 | x2 = 0.3539 | x2 = 0.4601 | x2 = 0.5602 | x2 = 0.6569 | x2 = 0.749 | x2 = 0.8361 | x2 = 0.9197
293.15 K | 3.93 | 5.65 | 8.04 | 9.98 | 13 | 15.3 | 17.5 | 20.9 | 23.9
298.15 K | 4.3 | 6.76 | 8.83 | 11.7 | 14.2 | 16.5 | 20.5 | 22.2 | 25.6
303.15 K | 5.04 | 7.34 | 9.84 | 13.1 | 15.8 | 18.8 | 21.9 | 25 | 28.1
308.15 K | 6.11 | 8.39 | 11.2 | 14.4 | 17.5 | 20.6 | 24 | 26 | 29.8
313.15 K | 7.2 | 9.63 | 12.2 | 16.4 | 19.5 | 22.7 | 25.9 | 29 | 31.9
318.15 K | 8.19 | 10.7 | 14.6 | 18.1 | 21.4 | 24.9 | 27.9 | 30.5 | 33.7
323.15 K | 8.82 | 12.2 | 15.9 | 20.1 | 23.6 | 27 | 29.6 | 33.1 | 36.6

CCC(C)n1ncn(-c2ccc(N3CCN(c4ccc(OCC5COC(Cn6cncn6)(c6ccc(Cl)cc6Cl)O5)cc4)CC3)cc2)c1=O (configuration not stated) + ClC(Cl)Cl + CO
solubility (g/100 g solution)
Conditions | x2 = 0.02929 | x2 = 0.06358 | x2 = 0.1043 | x2 = 0.1533 | x2 = 0.2136 | x2 = 0.2895 | x2 = 0.3879 | x2 = 0.5207 | x2 = 0.7097
288.15 K | 0.123 | 0.229 | 0.436 | 0.789 | 1.79 | 5.31 | 16.6 | 24.9 | 29.3
293.15 K | 0.147 | 0.272 | 0.515 | 0.931 | 2.3 | 6.83 | 18.2 | 26.3 | 30.1
298.15 K | 0.174 | 0.318 | 0.607 | 1.09 | 2.88 | 8.58 | 19.9 | 27.7 | 30.9
303.15 K | 0.205 | 0.373 | 0.708 | 1.29 | 3.66 | 10.8 | 21.7 | 29.1 | 31.7
308.15 K | 0.242 | 0.434 | 0.827 | 1.5 | 4.54 | 13.4 | 23.6 | 30.4 | 32.5

CC(C)=CCCC(C)C1CCC2(C)C3=C(CCC12C)C1(C)CCC(O)C(C)(C)C1CC3 (configuration not stated) + CC(C)O + O
solubility (g/100 g solution)
Conditions | 278.15 K | 288.15 K | 298.15 K | 308.15 K | 318.15 K
x2 = 0.01234 | 2.03e-05 | 2.81e-05 | 3.2e-05 | 3.94e-05 | 5.13e-05
x2 = 0.09088 | 0.000156 | 0.000176 | 0.000221 | 0.00024 | 0.000254
x2 = 0.2604 | 0.0158 | 0.0209 | 0.0306 | 0.0368 | 0.0456
x2 = 0.6874 | 0.147 | 0.272 | 0.373 | 0.472 | 0.64
